# From US9255100B2 (BAYER INTELLECTUAL PROPERTY GMBH, priority 2010, dated 2016)
# Molecular target: T1, N-terminally GST-tagged human full length recombinant Mps-1 kinase (Homo sapiens, UniProt P33981)
# T1 construct: N-terminally GST-tagged human full length recombinant Mps-1 kinase; purchased Invitrogen, Karslruhe, Germany PV4071
# T1 sequence (P33981 1-857): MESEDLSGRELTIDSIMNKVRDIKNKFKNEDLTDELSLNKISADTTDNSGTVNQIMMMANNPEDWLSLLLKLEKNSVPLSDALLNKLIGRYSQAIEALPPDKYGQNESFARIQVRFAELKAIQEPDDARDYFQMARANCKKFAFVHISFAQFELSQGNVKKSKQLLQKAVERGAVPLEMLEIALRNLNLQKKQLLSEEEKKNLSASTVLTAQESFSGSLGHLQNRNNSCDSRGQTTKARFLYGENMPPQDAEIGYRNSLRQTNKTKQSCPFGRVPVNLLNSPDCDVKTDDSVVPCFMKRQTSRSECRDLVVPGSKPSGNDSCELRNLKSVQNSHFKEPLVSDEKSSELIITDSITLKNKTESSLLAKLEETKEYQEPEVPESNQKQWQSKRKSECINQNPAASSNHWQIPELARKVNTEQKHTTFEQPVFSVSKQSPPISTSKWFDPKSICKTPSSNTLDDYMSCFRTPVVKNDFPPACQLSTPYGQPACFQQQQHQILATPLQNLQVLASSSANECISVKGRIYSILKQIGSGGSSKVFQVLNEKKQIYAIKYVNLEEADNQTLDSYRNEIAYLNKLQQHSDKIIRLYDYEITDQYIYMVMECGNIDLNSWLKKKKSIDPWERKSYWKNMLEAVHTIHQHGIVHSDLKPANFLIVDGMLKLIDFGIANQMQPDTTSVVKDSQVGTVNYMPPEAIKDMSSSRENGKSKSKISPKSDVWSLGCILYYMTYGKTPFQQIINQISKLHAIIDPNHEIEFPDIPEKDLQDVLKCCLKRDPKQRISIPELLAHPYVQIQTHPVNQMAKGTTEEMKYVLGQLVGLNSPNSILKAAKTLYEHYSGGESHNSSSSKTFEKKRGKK
# Experiment: Mps-1 kinase assay (TR-FRET)
# Format: biochemical
# Conditions: Mps1 IC50 [nM], 10 μM ATP, 1 μM peptide substrate, 60 min at 22° C.
# Method in brief: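 GST-tagged full-length recombinant Mps-1 at about 1 nM final, adjusted per lot for linear range, phosphorylated a biotinylated peptide. Product bound Eu-anti-phospho(Ser/Thr) antibody over 1 h at 22° C and was read by TR-FRET to streptavidin-XLent. Compounds scored for kinase inhibition.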
row,IC50 [nM],SMILES
1,0.2,"Cc1cc(-c2cnc3c(NCCC(F)(F)F)cc(Sc4cc(F)ccc4F)nn23)ccc1C(=O)NC1CC1 [Example 255, N-cyclopropyl-4-{6-[(2,5-difluorophenyl)sulfanyl]-8-[(3,3,3-trifluoropropyl)amino]imidazo[1,2-b]pyridazin-3-yl}-2-methylbenzamide]"
2,6.2,"CSc1cc(NCC(O)C(F)(F)F)c2ncc(-c3ccc(C(=O)NC4CC4)c(C)c3)n2n1 (racemic) [Example 206, (RS)N-cyclopropyl-2-methyl-4-{6-(methylsulfanyl)-8-[(3,3,3-trifluoro-2-hydroxypropyl)amino]imidazo[1,2-b]pyridazin-3-yl}benzamide]"
3,0.4,"Cc1cc(F)cc(Oc2cc(NCC3CCSCC3)c3ncc(-c4ccc(C(=O)NC5CC5)c(C)c4)n3n2)c1 [Example 282, N-cyclopropyl-4-{6-(3-fluoro-5-methylphenoxy)-8-[(tetrahydro-2H-thiopyran-4-ylmethyl)amino]imidazo[1,2-b]pyridazin-3-yl}-2-methylbenzamide]"
4,111,"CC(C)(O)CNc1cc(-c2ccc(F)cc2)nn2c(-c3ccc(-c4cnc(C5CC5)[nH]4)cc3)cnc12 [Example 8, 1-({3-[4-(2-Cyclopropyl-1H-imidazol-5-yl)phenyl]-6-(4-fluorophenyl)imidazo[1,2-b]pyridazin-8-yl}amino)-2-methylpropan-2-ol]"
5,7.1,"COc1cc(C(=O)NC2CC2)ccc1-c1cnc2c(NCCC(F)(F)F)cc(-c3ccnn3C)nn12 [Example 53, N-cyclopropyl-3-methoxy-4-{6-(1-methyl-1H-pyrazol-5-yl)-8-[(3,3,3-trifluoropropyl)amino]imidazo[1,2-b]pyridazin-3-yl}benzamide]"
6,0.3,"Cc1cc(-c2cnc3c(NCC(C)(C)O)cc(Oc4cccc(C(C)C)c4)nn23)ccc1C(=O)NC1CC1 [Example 94, N-cyclopropyl-4-{8-[(2-hydroxy-2-methylpropyl)amino]-6-(3-isopropylphenoxy)imidazo[1,2-b]pyridazin-3-yl}-2-methylbenzamide]"
7,< 10,"CCNC(=O)c1ccc(-c2cnc3c(NCC4CCOCC4)cc(Oc4ccc(F)c(F)c4)nn23)cc1C [Example 594, 4-{6-(3,4-difluorophenoxy)-8-[(tetrahydro-2H-pyran-4-ylmethyl)amino]imidazo[1,2-b]pyridazin-3-yl}-N-ethyl-2-methylbenzamide]"
8,0.3,"Cc1cc(-c2cnc3c(NCC4CCSCC4)cc(Sc4cccc(O)c4)nn23)ccc1C(=O)NC1CC1 [Example 287, N-cyclopropyl-4-{6-[(3-hydroxyphenyl)sulfanyl]-8-[(tetrahydro-2H-thiopyran-4-ylmethyl)amino]imidazo[1,2-b]pyridazin-3-yl}-2-methylbenzamide]"
9,0.3,"Cc1ccc(F)c(Oc2cc(NCCC(F)(F)F)c3ncc(-c4ccc(C(=O)NC5CC5)c(C)c4)n3n2)c1 [Example 259, N-cyclopropyl-4-{6-(2-fluoro-5-methylphenoxy)-8-[(3,3,3-trifluoropropyl)amino]imidazo[1,2-b]pyridazin-3-yl}-2-methylbenzamide]"
10,0.5,"Cc1cc(-c2cnc3c(NCC(C)(C)O)cc(Oc4ccc(F)nc4)nn23)ccc1C(=O)NC1CC1 [Example 410, N-cyclopropyl-4-{6-[(6-fluoropyridin-3-yl)oxy]-8-[(2-hydroxy-2-methylpropyl)amino]imidazo[1,2-b]pyridazin-3-yl}-2-methylbenzamide]"
11,1.2,"COc1ccccc1Sc1cc(NCCC(F)(F)F)c2ncc(-c3ccc(C(=O)NC4CC4)c(C)c3)n2n1 [Example 55, N-cyclopropyl-4-{6-[(2-methoxyphenyl)sulfanyl]-8-[(3,3,3-trifluoropropyl)amino]imidazo[1,2-b]pyridazin-3-yl}-2-methylbenzamide]"
12,1.8,"CC(C)CNc1cc(-c2cccs2)nn2c(-c3ccc(C(=O)NC4CC4)cc3)cnc12 [Example 121, N-cyclopropyl-4-{8-[(2-methylpropyl)amino]-6-(thiophen-2-yl)imidazo [1,2-b]pyridazin-3-yl} benzamide]"
13,3.3,"Cc1cc(-c2cnc3c(NCC4CCC(C)(O)CC4)cc(-c4ccccc4CO)nn23)ccc1C(=O)NC1CC1 (stereo not shown) [Example 340, N-cyclopropyl-4-(8-{[(4-hydroxy-4-methylcyclohexyl)methyl]amino}-6-[2-(hydroxymethyl)phenyl]imidazo[1,2-b]pyridazin-3-yl)-2-methylbenzamide]"
14,2.3,"Cc1cc(-c2cnc3c(NCC(C)(C)O)cc(Oc4cccc5ncccc45)nn23)ccc1C(=O)NC1CC1 [Example 167, N-cyclopropyl-4-{8-[(2-hydroxy-2-methylpropyl)amino]-6-(quinolin-5-yloxy)imidazo[1,2-b]pyridazin-3-yl}-2-methylbenzamide]"
15,1.7,"Cc1cc(-c2cnc3c(NCCC(F)(F)F)cc(Oc4cccc5c4CCN(C)C5)nn23)ccc1C(=O)NC1CC1 [Example 469, N-cyclopropyl-2-methyl-4-{6-[(2-methyl-1,2,3,4-tetrahydroisoquinolin-5-yl)oxy]-8-[(3,3,3-trifluoropropyl)amino]imidazo[1,2-b]pyridazin-3-yl}benzamide]"
16,1.6,"Cc1cc(-c2cnc3c(NCCC(F)(F)F)cc(N4CCCc5cccc(O)c54)nn23)ccc1C(=O)NC1CC1 [Example 467, N-cyclopropyl-4-{6-(8-hydroxy-3,4-dihydro-quinolin-1(2H)-yl)-8-[(3,3,3-trifluoropropyl)amino]imidazo[1,2-b]pyridazin-3-yl}-2-methyl-benzamide]"
17,0.5,"Cc1cc(-c2cnc3c(NCC(C)(C)O)cc(Sc4cc(F)ccc4F)nn23)ccc1C(=O)NC1CC1 [Example 248, N-cyclopropyl-4-{6-[(2,5-difluorophenyl)sulfanyl]-8-[(2-hydroxy-2-methylpropyl)amino]imidazo[1,2-b]pyridazin-3-yl}-2-methylbenzamide]"
18,1.4,"CNC(=O)c1ccc(-c2cnc3c(NCCC(F)(F)F)cc(Oc4cc(F)ccc4C)nn23)cc1C [Example 577, 4-{6-(5-fluoro-2-methylphenoxy)-8-[(3,3,3-trifluoropropyl)a-mino]imidazo[1,2-b]pyridazin-3-yl}-N,2-dimethylbenzamide]"
19,1,"Cc1cc(-c2cnc3c(NCC(C)(C)O)cc(Nc4cc(F)cc(F)c4)nn23)ccc1C(=O)NC1CC1 [Example 351, N-cyclopropyl-4-{6-[(3,5-difluorophenyl)amino]-8-[(2-hydroxy-2-methylpropyl)amino]imidazo[1,2-b]pyridazin-3-yl}-2-methylbenzamide]"
20,0.2,"Cc1cc(-c2cnc3c(NCC(C)(C)O)cc(Nc4ccc(F)cc4Cl)nn23)ccc1C(=O)NC1CC1 [Example 405, 4-{6-[(2-chloro-4-fluorophenyl)amino]-8-[(2-hydroxy-2-methylpropyl)amino]imidazo[1,2-b]pyridazin-3-yl}-N-cyclopropyl-2-methylbenzamide]"
21,0.3,"Cc1ccccc1Oc1cc(NCCC(F)(F)F)c2ncc(-c3ccc(C(=O)NC4CC4)c(C)c3)n2n1 [Example 474, N-cyclopropyl-2-methyl-4-{6-(2-methylphenoxy)-8-[(3,3,3-trifluoro-propyl)amino]imidazo [1,2-b]pyridazin-3-yl} benzamide]"
22,0.6,"CCNC(=O)c1ccc(-c2cnc3c(NCCC(F)(F)F)cc(Oc4ccc(Cl)cc4)nn23)cc1C [Example 559, 4-{6-(4-chlorophenoxy)-8-[(3,3,3-trifluoropropyl)amino]imidazo[1,2-b]pyridazin-3-yl}-N-ethyl-2-methylbenzamide]"
23,< 0.1,"Cc1cc(-c2cnc3c(NCC4CCS(=O)(=O)CC4)cc(Oc4cccc(F)c4)nn23)ccc1C(=O)NC1CC1 [Example 298A, N-cyclopropyl-4-[8-{[(1,1-dioxidotetrahydro-2H-thiopyran-4-yl)methyl]amino}-6-(3-fluorophenoxy)imidazo[1,2-b]pyridazin-3-yl]-2-methylbenzamide]"
24,< 1,"Cc1cc(-c2cnc3c(NCCC(F)(F)F)cc(SCCO)nn23)ccc1C(=O)NC1CC1 [Example 204, N-cyclopropyl-4-{6-[(2-hydroxyethyl)sulfanyl]-8-[(3,3,3-trifluoropropyl)amino]imidazo[1,2-b]pyridazin-3-yl}-2-methylbenzamide]"
25,4.4,"Cc1cc(-c2cnc3c(NCC(C)(C)N)cc(-c4ccc(F)cc4)nn23)ccc1C(=O)NC1CC1 [Example 57, 4-{8-[(2-Amino-2-methylpropyl)amino]-6-(4-fluorophenyl)imidazo[1,2-b]pyridazin-3-yl}-N-cyclopropyl-2-methylbenzamide]"
